Measured values from paper PMC7087583 (Biotechnology Letters, 2012).

Target: SARS 3CL^pro (Severe acute respiratory syndrome coronavirus, UniProt P0C6U8)
Assay: biochemical
Parameters: species or system SARS-CoV

SMILES	IC50 [µM]	inhibition at 200 µM (pH 7.5) [%]	Inhibition (%) (pH 7.5)	3CL^pro inhibitory activity relative to EGCG (times higher) [times]	Ki [µM]	Type of inhibition
O=C1c2c(O)cc(O)cc2O[C@H](c2cc(O)c(O)c(O)c2)[C@H]1O [AMPLS, ampelopsin]	364 ± 8.7	> 30	–	–	–	–
O=c1c(-c2ccc(O)cc2)coc2cc(O)ccc12 [Daidzein, daidzein]	351 ± 2.9	> 30	–	–	–	–
Oc1cc(O)c2c(c1)O[C@H](c1cc(O)c(O)c(O)c1)[C@H](O)C2 [EGC, epigallocatechin]	–	5	5.4	–	–	–
O=C(O[C@@H]1Cc2c(O)cc(O)cc2O[C@H]1c1cc(O)c(O)c(O)c1)c1cc(O)c(O)c(O)c1 [GCG, gallocatechin gallate]	47 ± 0.9	> 80	–	1.5	25 ± 1.7	competitive inhibition pattern
O=c1c(-c2ccc(O)cc2)coc2c([C@@H]3O[C@H](CO)[C@@H](O)[C@H](O)[C@H]3O)c(O)ccc12 [Puerarin, puerarin]	381 ± 12.5	> 30	–	–	–	–
O=c1c(O)c(-c2ccc(O)c(O)c2)oc2cc(O)cc(O)c12 [Quercetin]	73 ± 4	> 80	–	–	–	–
